Measurements: article PMC6123649, “Structural basis for specific inhibition of the highly sensitive ShHTL7 receptor” (EMBO Reports, 2018)
Where two headings read alike, the source gives them in different places.

Tests used:
ShHTL7 [1] = target: T1, ShHTL7 (Striga hermonthica, UniProt A0A0M3PNA2); assay: Yoshimulactone Green (YLG) hydrolysis competition assay; type: biochemical
T1 sequence (A0A0M3PNA2 1-271): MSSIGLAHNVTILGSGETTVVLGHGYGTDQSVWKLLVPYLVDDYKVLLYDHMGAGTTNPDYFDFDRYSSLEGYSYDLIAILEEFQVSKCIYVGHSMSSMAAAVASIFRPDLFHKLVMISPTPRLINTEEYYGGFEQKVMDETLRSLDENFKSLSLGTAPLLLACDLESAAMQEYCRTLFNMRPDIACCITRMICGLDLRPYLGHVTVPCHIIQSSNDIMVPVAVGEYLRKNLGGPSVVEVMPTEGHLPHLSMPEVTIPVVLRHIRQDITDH
Procedure: In vitro YLG hydrolysis assays were performed using 3 μM of ShHTL7, ShHTL7‐L143Y, AtD14, and OsD14 in a reaction buffer (1× PBS) with 0.1% dimethyl sulfoxide (DMSO) in a 100 μl volume on a 96‐well black plate (Greiner). The fluorescent intensity was measured by SpectraMax i3 (Molecular Devices) using an excitation wavelength of 480 nm and a detection wavelength of 520 nm. […] Protein‐Triton mixes were pre‐incubated for 30 min. 1 μM YLG (Tokyo Chemical Industry Co. Ltd.) was then added, and the assay was incubated for 60 min. The change in fluorescence observed over the course of 1 h incubation of YLG in buffer without protein was subtracted from the data collected in the presence of protein. The resulting relative fluorescence values were analyzed. The inhibitory curves and IC50 values were plotted using GraphPad (Prism 6) four‐parameter logistic curve. The rate of YLG hydrolysis by ShHTL7 was recorded following the above method at 10‐min interval for 2 h.

ShHTL7 [2] = target: T1, ShHTL7; assay: Drug affinity response target stability (DARTS) assay; type: binding; conditions: 100 μM compound; proteinase K 10 μg/ml
Procedure: ShHTL7 and mutants were diluted to a concentration of 30 μM in 50 mM Tris–HCl pH 7.5, 150 mM NaCl, 0.005% Tween‐20, incubated with GR24 at final concentration of 100 μM for 5 min, and separately with 100 μM Triton X‐100 for 2 h. One sample was kept aside for use as an undigested control. Proteinase K (Hampton Research) was then added to ShHTL7 protein to a final protease concentration of 10 μg/ml. Reactions were incubated at room temperature for 5 min and then SDS–PAGE loading buffer was added to stop the reaction, and the samples were immediately boiled for 3 min. Equal amounts of each sample, corresponding to 10 μg of protein, were run on a 4–20% gradient polyacrylamide gel (Bio‐Rad) and analyzed by Coomassie Blue staining 32.

ShHTL7 [3] = target: T1, ShHTL7; assay: Intrinsic tryptophan fluorescence assay; type: binding
ShHTL6 = system: ShHTL6; parameters: method as in PMID 26293962, PMID 26450211; conditions: recombinant ShHTL6; read-out: IC50 for GR24, in vitro YLG assay; cited from earlier work
ShHTL4‐6 = system: ShHTL4‐6; parameters: method as in PMID 26293962; conditions: transgenic A. thaliana, read-out: EC50 values for GR24; cited from earlier work
ShHTL7 [4] = target: T1, ShHTL7; assay: Differential static light scattering (DSLS), aggregation temperature; type: binding; conditions: 10 μM protein, varying compound concentrations
Procedure: The specific aggregation temperature, T agg, at which ShHTL7, ShHTL7L143Y, AtD14, and OsD14 aggregated in the presence or absence of Triton X‐100, GR24, and PAA was measured using DSLS on the Stargazer system (Harbinger Biotechnology and Engineering Corporation, Markham, Canada). Protein samples at a concentration of 10 μM were overlaid with mineral oil in a clear bottom 384‐well black plate (Corning) and heated from 20 to 95°C at 1°C/min; light scattering was detected by a CCD camera every 0.5°C in the presence or absence of varying concentrations of Triton X‐100, GR24, and PAA yielding the difference in aggregation temperature at a particular concentration from apoproteins (ΔT agg). Data were normalized, and ΔT agg plotted against the Triton X‐100, GR24, and PAA concentration. Resulting data were plotted to determine the change in T agg of all proteins when bound to Triton X‐100, GR24, and PAA using GraphPad (Prism 6).

ShHTL7 [5] = target: T1, ShHTL7; conditions: cited from earlier work
ShHTL7 [6] = target: T1, ShHTL7; parameters: method as in PMID 26293962, PMID 26450211; conditions: read-out: IC50 for GR24, in vitro YLG assay; recombinant ShHTL7; cited from earlier work
ShHTL7 [7] = target: T1, ShHTL7; assay: Microscale thermophoresis (MST); type: binding
Procedure: ShHTL7 was N‐terminally labeled with RED dye (NT‐647) following the protocol from manufacturer (NanoTemper, Germany). Free dye was removed by passing through the Sephadex G‐25 column. Serial dilutions of unlabeled Triton X‐100, GR24, and PAA ranging from 25 μM to sub‐nanomolar range were mixed with 20 nM of NT‐647‐labeled ShHTL7 in buffer (50 mM Tris–HCl, 150 mM NaCl, 0.005% Tween‐20) and incubated for 2.5 h in the studies for Triton X‐100 and PAA except with GR24, and it was recorded after 10‐min incubation. About 10 μl of sample was loaded into premium monolith NT capillaries, and assays were carried out in a NanoTemper Monolith NT.015T. The red fluorescence was excited by a light‐emitting diode, and its emission was recorded on the focused part of capillaries. Using laser diode, a microscopic temperature gradient was created at the same location and the fluorescence depletion was measured. K d values were determined by plotting the concentrations of unlabeled ligands against the changes in fluorescent thermophoresis signal, and the data were analyzed using the NanoTemper analysis software.

Striga hermonthica seeds = assay: Striga hermonthica germination bioassay; type: in vivo; conditions: for effect on GR24-induced Striga germination: n‐dodecyl‐β‐D‐maltoside at 15 and 1.5 µM, same conditions as Triton
Procedure: Striga hermonthica seeds were collected from Sorghum bicolor field in Sudan. For germination bioassays, Striga seeds were first sterilized and pre‐conditioned as described before 31. […] Triton X‐100/GR24 mixtures were applied (50 μl per disk) in four replicates. Corresponding volumes of GR24 and sterile MiliQ water were included as positive and negative control, respectively. The petri dishes were sealed with parafilm, enfolded with aluminum foil, and incubated for 48 h at 30°C. The germinated (seeds with radicle emerging through the seed coat) and non‐germinated Striga seeds were recorded under a binocular, and germination percentage was calculated.

Compound: CC(C)(C)CC(C)(C)c1ccc(OCCO)cc1 [4-ter-octylphenol Monoethoxylate, 4‐ter‐octylphenol monoethoxylate]
- IC50 (ShHTL7 [1]): 9240 ± 3170 nM

Compound: CC(C)(C)CC(C)(C)c1ccc(OCCOCCO)cc1 [4-ter-octylphenol diethoxylate, 4‐ter‐octylphenol diethoxylate]
- IC50 (ShHTL7 [1]): 7480 ± 2130 nM

Compound: CC1=CC(O/C=C2/C(=O)OC3c4ccccc4CC23)OC1=O (stereo not shown) [GR24]
- protection of ShHTL7 from digestion by proteinase K (ShHTL7 [2]): efficiently protected
- Kd (ShHTL7 [3]): 390 ± 50 nM
- IC50 (ShHTL7 [1]): 870 ± 60 nM
- IC50 (ShHTL6): ~500 nM
- EC50 (ShHTL4‐6): 10 to 300 nM
- effect on ShHTL7 aggregation temperature (T agg) (ShHTL7 [4]): destabilized
- EC50 of GR24 for ShHTL7 in transgenic Arabidopsis (ShHTL7 [5]): picomolar range
- EC50 (ShHTL7 [5]; read-out: EC50 (vs. GR24), seed germination in transgenic Arabidopsis lines expressing ShHTL7, ref Toh et al., 2015 (ref. 22)): 0.0175 nM
- IC50 (ShHTL7 [6]): ~500 nM
- Kd (ShHTL7 [7]): 920 ± 10 nM

Compound: CC(C)(C)CC(C)(C)c1ccc(OCC(=O)O)cc1 [PAA, 2‐[4‐(2,4,4‐trimethylpentan‐2‐yl)phenoxy]acetic acid]
- IC50 (ShHTL7 [1]): 1480 nM
- inhibition at 10 µM (Striga hermonthica seeds; Striga hermonthica, 48 h, read-out: inhibition of S. hermonthica germination): ≤ 40%
- effect on ShHTL7 aggregation temperature (T agg) (ShHTL7 [4]): stabilized
- Kd (ShHTL7 [7]): 1700 ± 240 nM

Compound: CCOC(=O)c1ccccc1-c1c2ccc(=O)cc-2oc2cc(OC3C=C(C)C(=O)O3)ccc12 (stereo not shown) [YLG, reference compound]
- time for hydrolysis of YLG by ShHTL7 (ShHTL7 [1]; 3 μM ShHTL7, 1 μM YLG, absence of Triton): ≤ 50 min

Compound: CCCCCCCCCCCCO[C@@H]1O[C@H](CO)[C@@H](O[C@H]2O[C@H](CO)[C@@H](O)[C@H](O)[C@H]2O)[C@H](O)[C@H]1O [n‐dodecyl‐β‐D‐maltoside, reference compound]
- effect on GR24-induced Striga germination (Striga hermonthica seeds): did not affect germination
- effect on GR24-induced Striga germination (Striga hermonthica seeds; listed as nDM): does not block germination
- effect on ShHTL7 aggregation temperature (T agg) (ShHTL7 [4]): did not increase
- effect on ShHTL7 aggregation temperature (T agg) (ShHTL7 [4]; listed as nDM): nor increase Tagg
- binding to ShHTL7 (MST) (ShHTL7 [7]; authors' reply in peer review file): does neither bind
